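Where inhibition never reached the appropriate level, the endpoint shown equals the highest concentration tested. Otherwise, values were interpolated linearly from a five-concentration, 48-hour dose response in 96-well plates. At the GI50, growth is halved.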 Active and inactive are the calls of the source. Cut-off read from the data, not from the text of the source: active = GI50 up to about 1.1 µM and inactive = higher.
Columns and labels:
Test in all cases: inhibition of tumour cell growth, NCI panel, 48 h
K562 = system: K562
786-0 = system: 786-0
UACC-257 = system: UACC-257
SF-295 = system: SF-295
SK-MEL-28 = system: SK-MEL-28
SN12C = system: SN12C
SR = system: SR
OVCAR-3 = system: OVCAR-3
SF-268 = system: SF-268
UACC-62 = system: UACC-62
MDA-N = system: MDA-N
A549 = system: A549
T47D = system: T47D
MCF7 = system: MCF7
HCC 2998 = system: HCC 2998
HOP-92 = system: HOP-92
IGROV-1 = system: IGROV-1
HL-60 = system: HL-60
DU-145 = system: DU-145
M14 = system: M14
HCT-15 = system: HCT-15
SK-OV-3 = system: SK-OV-3
SF-539 = system: SF-539
RPMI-8226 = system: RPMI-8226
OVCAR-5 = system: OVCAR-5
A498 = system: A498
EKVX = system: EKVX
ACHN = system: ACHN
SW-620 = system: SW-620
OVCAR-8 = system: OVCAR-8
Hs-578T = system: Hs-578T
KM12 = system: KM12
HCT-116 = system: HCT-116
NCI/ADR-RES = system: NCI/ADR-RES
BT-549 = system: BT-549
MDA-MB-435 = system: MDA-MB-435
SK-MEL-5 = system: SK-MEL-5
PC-3 = system: PC-3
CCRF-CEM = system: CCRF-CEM
NCI-H23 = system: NCI-H23
NCI-H226 = system: NCI-H226
RXF 393 = system: RXF 393
SNB-19 = system: SNB-19
HT-29 = system: HT-29
Malme-3M = system: Malme-3M
HOP-62 = system: HOP-62
SNB-75 = system: SNB-75
MOLT-4 = system: MOLT-4
TK-10 = system: TK-10
U-251 = system: U-251
UO-31 = system: UO-31
NCI-H460 = system: NCI-H460
CAKI-1 = system: CAKI-1
COLO 205 = system: COLO 205
LOX IMVI = system: LOX IMVI
MDA-MB-231 = system: MDA-MB-231
OVCAR-4 = system: OVCAR-4
NCI-H522 = system: NCI-H522
SK-MEL-2 = system: SK-MEL-2

Structure (SMILES): Cc1c2ccccc2c(C)n2c1nc1ccccc12
- GI50 (K562): 4.1 µM (inactive)
- GI50 (786-0): 4.68 µM (inactive)
- GI50 (UACC-257): 14.2 µM (inactive)
- GI50 (SF-295): 4.93 µM (inactive)
- GI50 (SK-MEL-28): 7.85 µM (inactive)
- GI50 (SN12C): 5.2 µM (inactive)
- GI50 (SR): 6.5 µM (inactive)
- GI50 (OVCAR-3): 5.41 µM (inactive)
- GI50 (SF-268): 9.89 µM (inactive)
- GI50 (UACC-62): 10.2 µM (inactive)
- GI50 (MDA-N): 10.6 µM (inactive)
- GI50 (A549): 4.37 µM (inactive)
- GI50 (T47D): 17.5 µM (inactive)
- GI50 (MCF7): 2.24 µM (inactive)
- GI50 (HCC 2998): 5.43 µM (inactive)
- GI50 (HOP-92): 12.2 µM (inactive)
- GI50 (IGROV-1): 11.6 µM (inactive)
- GI50 (HL-60): 83 µM (inactive)
- GI50 (DU-145): 18.5 µM (inactive)
- GI50 (M14): 9.35 µM (inactive)
- GI50 (HCT-15): 4.54 µM
- GI50 (SK-OV-3): 5.96 µM (inactive)
- GI50 (SF-539): 4.56 µM (inactive)
- GI50 (RPMI-8226): 7.16 µM (inactive)
- GI50 (OVCAR-5): 16 µM (inactive)
- GI50 (A498): 5.42 µM (inactive)
- GI50 (EKVX): 14 µM (inactive)
- GI50 (ACHN): 4.06 µM (inactive)
- GI50 (SW-620): 3.73 µM (inactive)
- GI50 (OVCAR-8): 4.97 µM (inactive)
- GI50 (Hs-578T): 20.2 µM (inactive)
- GI50 (KM12): 7.53 µM (inactive)
- GI50 (HCT-116): 4.65 µM (inactive)
- GI50 (NCI/ADR-RES): 8.57 µM (inactive)
- GI50 (BT-549): 15.1 µM (inactive)
- GI50 (MDA-MB-435): 6.1 µM (inactive)
- GI50 (SK-MEL-5): 4.44 µM (inactive)
- GI50 (PC-3): 6.98 µM (inactive)
- GI50 (CCRF-CEM): 5.06 µM (inactive)
- GI50 (NCI-H23): 6.93 µM (inactive)
- GI50 (NCI-H226): 11.6 µM (inactive)
- GI50 (RXF 393): 9.44 µM (inactive)
- GI50 (SNB-19): 9.71 µM (inactive)
- GI50 (HT-29): 5.11 µM (inactive)
- GI50 (Malme-3M): 8.69 µM (inactive)
- GI50 (HOP-62): 10 µM (inactive)
- GI50 (SNB-75): 12.5 µM (inactive)
- GI50 (MOLT-4): 2.9 µM (inactive)
- GI50 (TK-10): 13.4 µM (inactive)
- GI50 (U-251): 5.6 µM (inactive)
- GI50 (UO-31): 5.35 µM (inactive)
- GI50 (NCI-H460): 4.1 µM (inactive)

Structure (SMILES): CNC(C#N)c1ccc(OC)cc1 (configuration not stated)
- GI50 (CAKI-1): > 100 µM (inactive)
- GI50 (K562): 34.1 µM (inactive)
- GI50 (786-0): > 100 µM (inactive)
- GI50 (UACC-257): 54.8 µM (inactive)
- GI50 (SF-295): > 100 µM (inactive)
- GI50 (SK-MEL-28): > 100 µM (inactive)
- GI50 (SN12C): > 100 µM (inactive)
- GI50 (OVCAR-3): 61 µM (inactive)
- GI50 (SF-268): > 100 µM (inactive)
- GI50 (UACC-62): > 100 µM (inactive)
- GI50 (MDA-N): 33.1 µM (inactive)
- GI50 (A549): > 100 µM (inactive)
- GI50 (COLO 205): 71.3 µM (inactive)
- GI50 (T47D): 61.5 µM (inactive)
- GI50 (MCF7): > 100 µM (inactive)
- GI50 (HCC 2998): > 100 µM (inactive)
- GI50 (HOP-92): 92.5 µM (inactive)
- GI50 (IGROV-1): > 100 µM (inactive)
- GI50 (HL-60): 28.6 µM (inactive)
- GI50 (DU-145): > 100 µM (inactive)
- GI50 (M14): > 100 µM (inactive)
- GI50 (HCT-15): > 100 µM
- GI50 (SK-OV-3): > 100 µM (inactive)
- GI50 (SF-539): > 100 µM (inactive)
- GI50 (OVCAR-5): > 100 µM (inactive)
- GI50 (A498): > 100 µM (inactive)
- GI50 (EKVX): > 100 µM (inactive)
- GI50 (ACHN): > 100 µM (inactive)
- GI50 (SW-620): 94.2 µM (inactive)
- GI50 (OVCAR-8): > 100 µM (inactive)
- GI50 (Hs-578T): > 100 µM (inactive)
- GI50 (LOX IMVI): > 100 µM (inactive)
- GI50 (KM12): 78.9 µM (inactive)
- GI50 (HCT-116): 57 µM (inactive)
- GI50 (NCI/ADR-RES): > 100 µM (inactive)
- GI50 (BT-549): > 100 µM (inactive)
- GI50 (MDA-MB-435): 33.6 µM (inactive)
- GI50 (SK-MEL-5): 25.8 µM (inactive)
- GI50 (MDA-MB-231): > 100 µM (inactive)
- GI50 (PC-3): 54 µM (inactive)
- GI50 (CCRF-CEM): 53.3 µM (inactive)
- GI50 (NCI-H23): > 100 µM (inactive)
- GI50 (OVCAR-4): > 100 µM (inactive)
- GI50 (NCI-H522): 75.5 µM (inactive)
- GI50 (NCI-H226): > 100 µM (inactive)
- GI50 (RXF 393): > 100 µM (inactive)
- GI50 (SNB-19): > 100 µM (inactive)
- GI50 (HT-29): 61.1 µM (inactive)
- GI50 (Malme-3M): > 100 µM (inactive)
- GI50 (SK-MEL-2): 26.4 µM (inactive)
- GI50 (MOLT-4): 43.7 µM (inactive)
- GI50 (TK-10): > 100 µM (inactive)
- GI50 (U-251): 53.3 µM (inactive)
- GI50 (UO-31): > 100 µM (inactive)
- GI50 (NCI-H460): > 100 µM (inactive)
